This is an account of results in ChEMBL document CHEMBL1932991, “Novel ATP competitive MK2 inhibitors with potent biochemical and cell-based activity throughout the series” (Bioorg Med Chem Lett, 2012).

The target in series [1] is T1, MAP kinase-activated protein kinase 2 (Homo sapiens, UniProt P49137). The experiment in a line: Inhibition of MK2 using Fluo-betaA-11A NeoMPS as substrate pre-incubated for 30 mins before substrate addition measured after 2 hrs by IMAP assay.
Series [2] relates to THP-1. The experiment in a line: Inhibition of LPS-induced TNFalpha production in human THP1 cells pre-incubated for 30 mins prior to LPS-induction measured after 4 hrs by ELISA. It is filed as functional, cell-based.
Series [3] deals with T1, MAP kinase-activated protein kinase 2. The experiment in a line: Inhibition of MK2-mediated HSP27 phosphorylation in LPS-stimulated human THP1 cells pre-incubated for 60 mins prior to LPS-induction measured after 60 mins by multi-spot assay. The format is cell-based, THP-1.
Series [4] relates to PBMC. The series can be described thus: Inhibition of LPS-induced TNFalpha production in human PBMC pre-incubated for 30 mins prior to LPS-induction measured after 4 hrs by ELISA. The format is functional, cell-based.
A short description of series [5]: Dissociation constant, pKa of the compound at pH 7.4. The format is physicochemical.
The nature of series [6]: Plasma protein binding in human. It is filed as ADME, cell-free. As to conditions: read-out: PPB (converted).
The nature of series [7]: Permeability of the compound by PAMPA. The format is ADME.

T1 sequence (P49137 whole entry): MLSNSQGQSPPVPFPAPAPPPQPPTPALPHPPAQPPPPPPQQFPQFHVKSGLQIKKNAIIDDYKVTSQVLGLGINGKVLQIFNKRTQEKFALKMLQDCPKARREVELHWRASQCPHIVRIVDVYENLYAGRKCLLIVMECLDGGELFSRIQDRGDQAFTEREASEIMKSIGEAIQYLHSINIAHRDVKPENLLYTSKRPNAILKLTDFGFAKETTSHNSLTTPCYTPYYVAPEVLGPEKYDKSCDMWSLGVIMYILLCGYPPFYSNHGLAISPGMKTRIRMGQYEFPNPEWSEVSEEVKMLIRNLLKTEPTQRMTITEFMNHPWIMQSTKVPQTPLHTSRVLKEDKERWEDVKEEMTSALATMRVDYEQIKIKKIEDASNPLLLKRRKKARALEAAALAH

For `O=C(Nc1cc(-c2cc3c([nH]2)C2(CCNCC2)CNC3=O)ccn1)c1ccc2ccccc2c1`, the EC50 in series [1] stood at 0.00072 µM; in series [2] (Homo sapiens, THP-1), 0.32 µM; in series [3] it was 0.28 µM; in series [4] (Homo sapiens, PBMC), 0.23 µM. This molecule also registered a pKa in series [5] of 9.2. Besides, in series [6], the fraction unbound is 0.003.

In the case of `CN1CCC2(CC1)CNC(=O)c1cc(-c3ccnc(NC(=O)c4ccc5ccccc5c4)c3)[nH]c12`, the EC50 is 0.0026 µM in series [1]; 1.1 µM in series [2] (Homo sapiens, THP-1); 0.73 µM in series [3]; 0.07 µM in series [4] (Homo sapiens, PBMC). In addition, the pKa in series [5] is 8.3. For the same molecule, in series [6], the fraction unbound was 0.005.

Regarding `O=C(Nc1cc(-c2cc3c([nH]2)C2(CCNCC2)CNC3=O)ccn1)c1cccc(OC(F)(F)F)c1`, the EC50 in series [1] was found to be 0.0015 µM; in series [2] (Homo sapiens, THP-1), 0.08 µM; in series [3], 0.13 µM; in series [4] (Homo sapiens, PBMC), 0.16 µM. The pKa in series [5] amounted to 9.1. For the same molecule, in series [6], the fraction unbound was 0.042.

In the case of `CN1CCC2(CC1)CNC(=O)c1cc(-c3ccnc(NC(=O)c4cccc(OC(F)(F)F)c4)c3)[nH]c12`, the EC50 in series [1] is 0.0027 µM; in series [2] (Homo sapiens, THP-1) it was 1 µM; in series [3], 0.83 µM; in series [4] (Homo sapiens, PBMC), 0.05 µM. In addition, in series [5], the pKa worked out at 8.4. Also, the fraction unbound in series [6] is 0.027.

With `O=C(Nc1cc(-c2cc3c([nH]2)C2(CCCNC2)CNC3=O)ccn1)c1cccc(OC(F)(F)F)c1` (racemic), the EC50 worked out at 0.011 µM in series [1]; 0.62 µM in series [2] (Homo sapiens, THP-1); 0.61 µM in series [3]; 0.2 µM in series [4] (Homo sapiens, PBMC). Further, the pKa in series [5] was 8.2. Besides, the fraction unbound in series [6] was 0.013.

For the molecule `O=C(Nc1cc(-c2cc3c([nH]2)C2(CCNC2)CNC3=O)ccn1)c1ccc2ccccc2c1` (racemic), the EC50 in series [1] is 0.00062 µM; in series [2] (Homo sapiens, THP-1), 1.7 µM; in series [3], 0.39 µM. This molecule also registered a pKa in series [5] of 8.5. Also, the fraction unbound in series [6] was 0.002.

For the molecule `O=C(Nc1cc(-c2cc3c([nH]2)C2(CCNC2)CNC3=O)ccn1)c1cccc(OC(F)(F)F)c1` (racemic), the EC50 in series [1] was 0.0016 µM; in series [2] (Homo sapiens, THP-1) it was 0.69 µM; in series [3], 0.4 µM; in series [4] (Homo sapiens, PBMC), 0.65 µM. For the same molecule, the pKa in series [5] was 8.4. Moreover, the fraction unbound in series [6] is 0.017.

With `O=C(Nc1cc(-c2cc3c([nH]2)C2(CCCNC2)CNC3=O)ccn1)c1ccc2ccccc2c1` (single isomer, unassigned), in series [1], the EC50 was found to be 0.129 µM. In addition, the pKa in series [5] turned out to be 8.2. The fraction unbound in series [6] was 0.004.

On to `O=C(Nc1cc(-c2cc3c([nH]2)C2(CCCNC2)CNC3=O)ccn1)c1ccc(F)cc1` (stereo in doubt; 6dS1), for which the 50% effective concentration (EC50) in series [1] is 0.0024 µM; in series [2] (thp-1) it was 0.31 µM; in series [3], 0.32 µM; in series [4] (pbmc), 0.07 µM. This molecule also gave a permeability in series [7] of 11 nm/s.
